Article PMC11073913 (Archiv der Pharmazie, 2024)
Where “and” joins values, the source holds several entries; their conditions need not be identical. Equal entries are not always repeated. Where two headings read alike, the source gives them in different places.

What was measured:
[1] = system: LPS-induced TNF-α production in RAW 264.7 cells; settings: for TNF-α level: cells treated with 25 μM compound, LPS-activated RAW 264.7
[2] = system: LPS-induced IL-6 production in RAW 264.7 cells; settings: for IL-6 level: cells treated with 25 μM compound, LPS-activated RAW 264.7
[3] = system: LPS-induced ROS production in RAW 264.7 cells; experiment: cells; settings: Mus musculus, RAW264.7, 18 h, read-out: ROS (IC50)
ovine COX-1 = target: T1, ovine COX-1 (Ovis aries, UniProt P05979); experiment: In vitro COX-1 inhibitory assay; type: biochemical
T1 sequence (P05979 25-600): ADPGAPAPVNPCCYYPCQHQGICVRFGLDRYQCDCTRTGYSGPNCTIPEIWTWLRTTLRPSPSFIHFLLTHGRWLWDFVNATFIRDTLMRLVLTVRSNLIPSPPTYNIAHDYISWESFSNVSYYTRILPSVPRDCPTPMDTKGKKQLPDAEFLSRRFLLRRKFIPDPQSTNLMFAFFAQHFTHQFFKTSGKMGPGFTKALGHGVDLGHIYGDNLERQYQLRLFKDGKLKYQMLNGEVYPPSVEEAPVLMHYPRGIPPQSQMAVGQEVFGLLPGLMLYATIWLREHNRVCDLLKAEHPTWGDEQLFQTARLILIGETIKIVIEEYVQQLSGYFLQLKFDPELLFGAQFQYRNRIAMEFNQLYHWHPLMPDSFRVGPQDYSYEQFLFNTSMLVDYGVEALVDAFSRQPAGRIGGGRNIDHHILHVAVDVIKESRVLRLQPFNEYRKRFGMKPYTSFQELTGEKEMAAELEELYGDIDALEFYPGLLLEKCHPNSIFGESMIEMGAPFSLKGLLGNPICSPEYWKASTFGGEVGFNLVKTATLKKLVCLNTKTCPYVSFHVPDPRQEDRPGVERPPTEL

human recombinant COX-2 = target: T2, human recombinant COX-2 (Homo sapiens, UniProt P35354); experiment: In vitro COX-2 inhibitory assay; type: biochemical; settings: for Enhancement of anti-COX-2 activity by p-Cl on benzylidine: compared with unsubstituted compounds 4b, 4c, 4g, 4h respectively
T2 sequence (P35354 18-604): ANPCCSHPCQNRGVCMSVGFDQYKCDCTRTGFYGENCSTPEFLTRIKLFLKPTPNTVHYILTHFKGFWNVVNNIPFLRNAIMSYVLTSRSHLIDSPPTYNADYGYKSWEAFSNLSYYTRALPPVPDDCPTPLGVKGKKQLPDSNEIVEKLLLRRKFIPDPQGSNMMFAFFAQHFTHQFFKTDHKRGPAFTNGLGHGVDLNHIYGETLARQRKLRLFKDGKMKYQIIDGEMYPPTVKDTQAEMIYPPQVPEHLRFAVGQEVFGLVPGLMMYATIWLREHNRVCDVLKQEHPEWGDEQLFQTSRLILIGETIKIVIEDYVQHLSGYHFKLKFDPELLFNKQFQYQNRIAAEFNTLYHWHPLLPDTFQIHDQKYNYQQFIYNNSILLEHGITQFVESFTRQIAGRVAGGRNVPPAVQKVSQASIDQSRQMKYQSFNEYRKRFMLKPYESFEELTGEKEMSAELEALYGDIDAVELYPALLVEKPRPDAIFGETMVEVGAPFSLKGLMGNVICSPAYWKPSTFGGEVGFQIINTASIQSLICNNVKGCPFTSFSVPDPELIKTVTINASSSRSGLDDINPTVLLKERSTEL

soybean 15-LOX = target: T3, soybean 15-LOX (Glycine max, UniProt P08170); experiment: In vitro 15-LOX inhibitory assay; type: biochemical
T3 sequence (P08170 1-839): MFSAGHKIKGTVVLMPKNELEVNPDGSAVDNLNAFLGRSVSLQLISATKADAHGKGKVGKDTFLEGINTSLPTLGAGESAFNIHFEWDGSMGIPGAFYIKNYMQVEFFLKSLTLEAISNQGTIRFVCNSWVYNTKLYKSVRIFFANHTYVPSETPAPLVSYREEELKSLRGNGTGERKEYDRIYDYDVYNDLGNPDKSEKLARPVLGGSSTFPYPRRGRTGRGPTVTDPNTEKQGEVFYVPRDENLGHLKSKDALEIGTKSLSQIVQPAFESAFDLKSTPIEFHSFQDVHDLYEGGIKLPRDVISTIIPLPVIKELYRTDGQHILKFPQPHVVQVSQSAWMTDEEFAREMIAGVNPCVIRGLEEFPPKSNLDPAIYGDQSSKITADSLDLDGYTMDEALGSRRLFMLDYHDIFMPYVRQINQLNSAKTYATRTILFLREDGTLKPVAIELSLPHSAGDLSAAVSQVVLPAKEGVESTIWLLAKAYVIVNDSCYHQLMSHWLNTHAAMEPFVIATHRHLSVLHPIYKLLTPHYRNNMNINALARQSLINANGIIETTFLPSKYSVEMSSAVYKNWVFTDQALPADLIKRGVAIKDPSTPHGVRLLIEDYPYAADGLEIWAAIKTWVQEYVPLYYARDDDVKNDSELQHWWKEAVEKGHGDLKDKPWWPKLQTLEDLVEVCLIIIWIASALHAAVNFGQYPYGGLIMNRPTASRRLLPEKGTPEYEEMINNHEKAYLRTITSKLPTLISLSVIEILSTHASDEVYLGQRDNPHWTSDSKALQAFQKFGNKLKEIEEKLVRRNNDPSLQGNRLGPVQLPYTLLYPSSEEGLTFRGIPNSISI

[4] = system: LPS-induced ROS production in RAW 264.7 cells; settings: read-out: ROS (IC50), LPS (1 μg/mL) 18 h, mean ± SEM

SMILES | TNF-α level [1] | TNF-α level ([1]; listed as celecoxib) | IL-6 level [2] | IL-6 level ([2]; listed as celecoxib) | IC50 [3] | IC50 (ovine COX-1) | IC50 (human recombinant COX-2) | SI (Selectivity index = COX-1 IC50/COX-2 IC50) (human recombinant COX-2; COX-1 IC50/COX-2 IC50) | IC50 (soybean 15-LOX) | IC50 (ovine COX-1; read-out: COX1, IC50, ovine COX-1, mean ± SEM) | SI (Selectivity index = COX-1 IC50/COX-2 IC50) (human recombinant COX-2) | IC50 (human recombinant COX-2; read-out: COX2, IC50) | IC50 (soybean 15-LOX; read-out: 15-LOX IC50, soybean 15-LOX) | IC50 [4] | Enhancement of anti-COX-2 activity by p-Cl on benzylidine (human recombinant COX-2) | TNF-α inhibitory activity, fold more than unsubstituted benzylidine 4h ([1]; vs 4h) | TNF-α inhibition, fold more potent than celecoxib ([1]; vs celecoxib) | IL-6 inhibitory activity, folds more than unsubstituted benzylidine 4h ([2]; vs 4h)
Cc1ccc(-c2cc(C(F)(F)F)nn2-c2ccc(S(N)(=O)=O)cc2)cc1 [Celecoxib, celecoxib, reference compound] | 25.36 ± 6.364 pg/mL | 25.36 pg/mL | 24.64 ± 6.36 pg/mL | 24.64 pg/mL | 44.6 ± 1.18 µM | – | – | – | – | – | – | – | – | – | – | – | – | –
O=C(CSC1=N/C(=C\c2ccccc2)C(=O)N1c1ccccc1)Nc1ccccc1 [Compound 4a, (Z)-2-[(4-Benzylidene-5-oxo-1-phenyl-4,5-dihydro-1H-imidazol-2-yl)thio]-N-phenylacetamide] | 57.28 ± 18.75 pg/mL | – | 37.82 ± 1.06 pg/mL | – | 44.6 ± 1.43 µM | 7.83 ± 1.19 µM | 0.12 ± 0.06 µM | 62.97 | 5.71 ± 2.56 µM | – | – | – | – | – | – | – | – | –
O=C(CSC1=N/C(=C\c2ccccc2)C(=O)N1c1ccccc1)Nc1ccc(F)cc1 [Compound 4b, (Z)-2-[(4-Benzylidene-5-oxo-1-phenyl-4,5-dihydro-1H-imidazol-2-yl)thio]-N-(4-fluorophenyl) acetamide] | 51.63 ± 10.35 pg/mL | – | 50.90 ± 10.35 pg/mL | – | – | – | – | – | – | 12.6 ± 1.78 µM | 99.06 | 0.13 ± 0.068 µM | 3.13 ± 1.49 µM | 23.8 ± 1.44 µM | – | – | – | –
O=C(CSC1=N/C(=C\c2ccccc2)C(=O)N1c1ccccc1)Nc1cccc(C(F)(F)F)c1 [Compound 4h, (Z)-2-[(4-Benzylidene-5-oxo-1-phenyl-4,5-dihydro-1H-imidazol-2-yl)thio]-N-[3-(trifluoromethyl)phenyl]acetamide] | 24.15 ± 1.05 pg/mL | – | 23.42 pg/mL and 23.42 ± 1.05 pg/mL | – | 45.4 ± 1.23 µM | 11.1 ± 1.63 µM | 0.28 ± 0.155 µM | 39.99 | 5.71 ± 2.56 µM | – | – | – | – | – | – | – | – | –
O=C(CSC1=N/C(=C\c2ccccc2)C(=O)N1c1ccccc1)NCc1ccccc1 [Compound 4i, (Z)-N-Benzyl-2-[(4-benzylidene-5-oxo-1-phenyl-4,5-dihydro-1H-imidazol-2-yl)thio]acetamide] | 46.98 ± 25.83 pg/mL | – | 21.00 pg/mL and 21.00 ± 9.39 pg/mL | – | 21.8 ± 1.26 µM | 10.6 ± 1.62 µM | 0.09 ± 0.041 µM | 121.60 | 2.82 ± 1.27 µM | – | – | – | – | – | – | – | – | –
O=C(CSC1=N/C(=C\c2ccc(Cl)cc2)C(=O)N1c1ccccc1)Nc1ccccc1 [Compound 4j, (Z)-2-{[4-(4-Chlorobenzylidene)-5-oxo-1-phenyl-4,5-dihydro-1H-imidazol-2-yl]thio}-N-phenylacetamide] | 50.31 ± 10.22 pg/mL | – | 49.59 pg/mL and 49.59 ± 10.22 pg/mL | – | 33.4 ± 1.27 µM | 12 ± 1.67 µM | 0.13 ± 0.064 µM | 94.97 | 4.75 ± 2.31 µM | – | – | – | – | – | – | – | – | –
O=C(CSC1=N/C(=C\c2ccc(Cl)cc2)C(=O)N1c1ccccc1)Nc1ccc(Br)cc1 [Compound 4m, (Z)-N-(4-Bromophenyl)-2-[(4-(4-chlorobenzylidene)-5-oxo-1-phenyl-4,5-dihydro-1H-imidazol-2-yl)thio]acetamide] | 27.89 pg/mL and 27.89 ± 0.90 pg/mL | – | 27.16 ± 0.9 pg/mL | – | 38.4 ± 1.37 µM | 8 ± 1.31 µM | 0.18 ± 0.082 µM | 44.12 | 4.21 ± 1.53 µM | – | – | – | – | – | – | – | – | –
Cc1ccc(NC(=O)CSC2=N/C(=C\c3ccc(Cl)cc3)C(=O)N2c2ccccc2)cc1 [Compound 4n, (Z)-2-{[4-(4-Chlorobenzylidene)-5-oxo-1-phenyl-4,5-dihydro-1H-imidazol-2-yl]thio}-N-(4-tolyl)acetamide] | 37.28 ± 14.95 pg/mL | – | 36.56 ± 14.95 pg/mL | – | 41 ± 1.39 µM | 9.45 ± 1.33 µM | 0.12 ± 0.053 µM | 79.96 | 3.13 ± 1.49 µM | – | – | – | – | – | – | – | – | –
COc1ccc(NC(=O)CSC2=N/C(=C\c3ccc(Cl)cc3)C(=O)N2c2ccccc2)cc1 [Compound 4o, (Z)-2-{[4-(4-Chlorobenzylidene)-5-oxo-1-phenyl-4,5-dihydro-1H-imidazol-2-yl]thio}-N-(4-methoxyphenyl)acetamide] | 29.10 ± 4.54 pg/mL | – | 28.37 pg/mL and 28.37 ± 4.54 pg/mL | – | 24.2 ± 1.26 µM | 11 ± 1.53 µM | 0.1 ± 0.044 µM | 111.27 | 3.24 ± 1.46 µM | – | – | – | – | – | – | – | – | –
COc1cc(NC(=O)CSC2=N/C(=C\c3ccc(Cl)cc3)C(=O)N2c2ccccc2)cc(OC)c1OC [Compound 4p, (Z)-2-{[4-(4-Chlorobenzylidene)-5-oxo-1-phenyl-4,5-dihydro-1H-imidazol-2-yl]thio}-N-(3,4,5-trimethoxyphenyl)acetamide] | 31.42 ± 3.70 pg/mL | – | 30.70 pg/mL and 30.70 ± 3.70 pg/mL | – | 25.4 ± 1.26 µM | 12.8 ± 1.83 µM | 0.08 ± 0.037 µM | 152.23 and 152.33 | 2.69 ± 1.29 µM | – | – | – | – | – | 1.75 folds | – | – | –
O=C(CSC1=N/C(=C\c2ccc(Cl)cc2)C(=O)N1c1ccccc1)Nc1cccc(C(F)(F)F)c1 [Compound 4q, (Z)-2-{[4-(4-Chlorobenzylidene)-5-oxo-1-phenyl-4,5-dihydro-1H-imidazol-2-yl]thio}-N-[3-(trifluoromethyl)phenyl]acetamide] | 5.26 pg/mL and 5.26 ± 0.61 pg/mL | – | 4.54 ± 0.61 pg/mL | – | 56.2 ± 1.26 µM | 10.1 ± 1.61 µM | 0.09 ± 0.04 µM | 111.90 | 3.99 ± 1.9 µM | – | – | – | – | – | 3.1 folds | 4.6 fold | ~ 5 fold | ~ 5 folds
O=C(CSC1=N/C(=C\c2ccc(Cl)cc2)C(=O)N1c1ccccc1)NCc1ccccc1 [Compound 4r, (Z)-N-Benzyl-2-[(4-(4-chlorobenzylidene)-5-oxo-1-phenyl-4,5-dihydro-1H-imidazol-2-yl)thio]acetamide] | 21.02 ± 5.03 pg/mL | – | 20.29 ± 5.03 pg/mL | – | 72.4 ± 1.85 µM | 10.1 ± 1.6 µM | 0.13 ± 0.057 µM | 78.00 | 2.47 ± 1.14 µM | – | – | – | – | – | – | – | – | –
COc1ccc2c(c1)c(CC(=O)O)c(C)n2C(=O)c1ccc(Cl)cc1 [Indomethacin, indomethacin, reference compound] | – | – | – | – | 55 ± 1.26 µM | – | – | – | – | – | – | – | – | – | – | – | – | –
